Measurements from PubChem BioAssay AID1919014 (Molecular Pharmacology Branch, DTP, NCI, 2023).

Tested on: NCI-H1341 complex spheroids, percent test/control
Assay: Anticancer human tumor NCI-H1341 cell line growth inhibition [AhR];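 also: spheroids exposed to agents for seven days before readout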
Settings: for IC50: curve of first compound; for viability, T/C: stronger effect = lower value
Description: Multicellular complex tumor spheroid response to aryl hydrocarbon receptor antagonists in combination with a variety of drugs and investigational agents in selected tumor cell lines
The current study was undertaken to assess response to aryl hydrocarbon receptor antagonists in combination with standard-of-care drugs and investigational agents in solid tumor complex spheroid models. Complex spheroids include a stromal component modeled by human endothelial cells (HUVEC) and fibroblasts modeled by human mesenchymal stem cells (MSCs). The concentration ranges selected for each drug and investigational agent were based upon clinically achievable concentrations if the clinical Cmax of the agent was known.
Compounds. The drugs and investigational agents: BAY 2416964 (NSC825713), GNF351 (NSC835774), CH-223191 (NSC835775), CPI-455 (NSC825282), aza-TdCyd (NSC777586), decitabine (NSC127716), belinostat (NSC758774), entinostat (NSC756642), pevonedistat (NSC761192), tazemetostat (NSC777109), talazoparib (NSC765396), olaparib (NSC753686), selinexor (NSC780203), nedisertib (M3814, NSC802822), bortezomib (NSC756655), venetoclax (NSC766270), doxorubicin (NSC123127), elimusertib (BAY189344, NSC800525), ceralasertib (AZD6738, NSC777638), TAK-243 (NSC785004), alisertib (NSC759677), etoposide (NSC141540), topotecan (NSC609699), eribulin (NSC707389), gemcitabine (NSC613327), carboplatin (NSC241240), cisplatin (NSC119875), and SN-38 (NSC673596) were obtained from the National Cancer Institute (NCI) Developmental Therapeutics Program Chemical Repository (32). The FDA-approved anticancer drug set is available from the Developmental Therapeutics Program at https://dtp.cancer.gov/organization/dscb/obtaining/available plates.htm. […] The stock solutions were prepared in dimethyl sulfoxide (DMSO, Sigma-Aldrich, St. Louis, MO, cat. D2650), except for the platinum compounds which were prepared in saline (Quality Biological, Gaithersburg, MD, cat. 114-055-101), at 800-fold the tested concentration and stored at -70 degrees C prior to their use. All drugs and investigational agents were tested over a range starting from a high concentration at or near the clinical Cmax and decreasing in half-log increments. If the clinical Cmax for an agent had not been determined, the highest concentration tested was 10 microM (Table 1).
Cell Culture. All cells were maintained in an incubator at 37 degrees C and 5% CO2 with 95% humidity. The PDC lines were cultured according to standard operating procedures established by the NCI PDMR (https://pdmr.cancer.gov). Briefly, all PDCs were thawed and cultured in Matrigel-coated flasks prepared with a working solution of 1X Ham's F-12 nutrient mix, without supplementation (Invitrogen, Waltham, MA, cat. 11765054), 100 U/mL penicillin-streptomycin (Invitrogen, cat. 15140122), and 2.5% Matrigel (Corning Inc., Corning, NY, cat. 354248) for the first three passages. All PDCs were cultured in complete DMEM/F-12 media containing advanced DMEM/F-12 (Invitrogen, cat. 12634028), 4.9% defined fetal bovine serum, heat inactivated (HyClone Laboratories Inc., Logan, UT, cat. SH30070.03HI), 389 ng/mL hydrocortisone (Sigma-Aldrich, cat. H4001), 9.7 ng/mL human EGF recombinant protein (Invitrogen, cat. PHG0313), 23.4 microg/mL adenine (Sigma-Aldrich, cat. A2786), 97.3 U/mL penicillin-streptomycin (Invitrogen, cat. 15140122), 1.9 mM L-glutamine (Invitrogen, cat. 25030081), and 9.7 microM Y-27632 dihydrochloride (Tocris Bioscience, Bristol, United Kingdom, cat. 1254). The PDCs were cultured in complete DMEM/F12 media without 10 microM Y-27632 dihydrochloride for at least two passages prior to the screen. The established cell lines NCI-H1341 and […] were cultured in DMEM/F-12, HEPES (Invitrogen, cat. 11330032), 5% defined fetal bovine serum (HyClone Laboratories Inc., cat. SH30070.03), ITS premix universal culture supplement [insulin (5 microg/mL), transferrin (5 microg/mL), and selenious acid (5 ng/mL)] […]

[1] = second compound 0.1 µM, first compound 0.0316 µM
[2] = second compound 0.1 µM, first compound 0.1 µM
[3] = second compound 0.1 µM, first compound 0.316 µM
[4] = second compound 0.1 µM, first compound 1 µM
[5] = second compound 0.1 µM, first compound 3.16 µM
[6] = second compound 0.1 µM, first compound 10 µM
[7] = second compound 0.316 µM, first compound 0.0316 µM
[8] = second compound 0.316 µM, first compound 0.1 µM
[9] = second compound 0.316 µM, first compound 0.316 µM
[10] = second compound 0.316 µM, first compound 1 µM
[11] = second compound 0.316 µM, first compound 3.16 µM
[12] = second compound 0.316 µM, first compound 10 µM
[13] = second compound 1 µM, first compound 0.0316 µM
[14] = second compound 1 µM, first compound 0.1 µM
[15] = second compound 1 µM, first compound 0.316 µM
[16] = second compound 1 µM, first compound 1 µM
[17] = second compound 1 µM, first compound 3.16 µM
[18] = second compound 1 µM, first compound 10 µM
[19] = second compound 3.16 µM, first compound 0.0316 µM
[20] = second compound 3.16 µM, first compound 0.1 µM
[21] = second compound 3.16 µM, first compound 0.316 µM
[22] = second compound 3.16 µM, first compound 1 µM
[23] = second compound 3.16 µM, first compound 3.16 µM
[24] = second compound 3.16 µM, first compound 10 µM
[25] = second compound 10 µM, first compound 0.0316 µM
[26] = second compound 10 µM, first compound 0.1 µM
[27] = second compound 10 µM, first compound 0.316 µM
[28] = second compound 10 µM, first compound 1 µM
[29] = second compound 10 µM, first compound 3.16 µM
[30] = second compound 10 µM, first compound 10 µM

| Structure (SMILES) | IC50 (second compound 0.1 µM) [µM] | IC50 (second compound 0.316 µM) [µM] | IC50 (second compound 1 µM) [µM] | IC50 (second compound 3.16 µM) [µM] | IC50 (second compound 10 µM) [µM] | viability, T/C [1] [%] | viability, T/C [2] [%] | viability, T/C [3] [%] | viability, T/C [4] [%] | viability, T/C [5] [%] | viability, T/C [6] [%] | viability, T/C [7] [%] | viability, T/C [8] [%] | viability, T/C [9] [%] | viability, T/C [13] [%] | viability, T/C [14] [%] | viability, T/C [19] [%] | viability, T/C [20] [%] | viability, T/C [25] [%] | viability, T/C [26] [%] | further results |
| --- | --- | --- | --- | --- | --- | --- | --- | --- | --- | --- | --- | --- | --- | --- | --- | --- | --- | --- | --- | --- | --- |
| COc1cccc2c1C(=O)c1c(O)c3c(c(O)c1C2=O)CC(O)(C(=O)CO)CC3OC1CC(N)C(O)C(C)O1 (stereo not given) + Cc1cncc(-c2nc(NCCc3c[nH]c4ccccc34)c3ncn(C(C)C)c3n2)c1 | < 0.0316 | < 0.0316 | < 0.0316 | < 0.0316 | < 0.0316 | 51 | 43 | 33.4 | 16 | 0.94 | 5.91 | 43.4 | 39.2 | 34.8 | 39.5 | 37.5 | 38.9 | 35 | 16.8 | 16.6 | viability, T/C [10]: 13%; viability, T/C [11]: 0.92%; viability, T/C [12]: 4.49%; viability, T/C [15]: 28.9%; viability, T/C [16]: 10.9%; viability, T/C [17]: 1.66%; viability, T/C [18]: 4.68%; viability, T/C [21]: 27.1%; viability, T/C [22]: 5.93%; viability, T/C [23]: 2.35%; viability, T/C [24]: 6.56%; viability, T/C [27]: 14.3%; viability, T/C [28]: 2.4%; viability, T/C [29]: 6.71%; viability, T/C [30]: 5.96% |
| Nc1ccn(C2OC(CO)C(O)C2(F)F)c(=O)n1 (stereo not given) + Cc1cncc(-c2nc(NCCc3c[nH]c4ccccc34)c3ncn(C(C)C)c3n2)c1 | < 0.0316 | < 0.0316 | < 0.0316 | < 0.0316 | < 0.0316 | 28.4 | 28.2 | 25.5 | 25.2 | 27.6 | 20.8 | 30.6 | 28.5 | 25.9 | 29.2 | 31.7 | 32.8 | 27.1 | 36.6 | 23.7 | viability, T/C [10]: 25.6%; viability, T/C [11]: 22.7%; viability, T/C [12]: 21.5%; viability, T/C [15]: 27.9%; viability, T/C [16]: 26.4%; viability, T/C [17]: 24.3%; viability, T/C [18]: 20.9%; viability, T/C [21]: 28.5%; viability, T/C [22]: 27%; viability, T/C [23]: 26.8%; viability, T/C [24]: 21.6%; viability, T/C [27]: 28.9%; viability, T/C [28]: 27.3%; viability, T/C [29]: 30.8%; viability, T/C [30]: 23.1% |
| COc1cccc2c1C(=O)c1c(O)c3c(c(O)c1C2=O)CC(O)(C(=O)CO)CC3OC1CC(N)C(O)C(C)O1 (stereo not given) + CC(CO)NC(=O)c1cc(-c2ccc(Cl)cc2)nn(-c2cnn(C)c2)c1=O | 0.108 | < 0.0316 | 0.103 | < 0.0316 | < 0.0316 | 51 | 53 | 32.4 | 6.25 | 0.83 | 2.75 | 51.3 | 40.9 | 28.4 | 48.4 | 53.3 | 43.9 | 53.7 | 41.6 | 36.8 | viability, T/C [10]: 6.42%; viability, T/C [11]: 0.79%; viability, T/C [12]: 2.4%; viability, T/C [15]: 30.2%; viability, T/C [16]: 4.94%; viability, T/C [17]: 1.46%; viability, T/C [18]: 2.75%; viability, T/C [21]: 26.7%; viability, T/C [22]: 3.92%; viability, T/C [23]: 3.09%; viability, T/C [24]: 2.61%; viability, T/C [27]: 15.2%; viability, T/C [28]: 0.93%; viability, T/C [29]: 2.19%; viability, T/C [30]: 2.31% |
| Cn1ncnc1C1c2n[nH]c(=O)c3cc(F)cc(c23)NC1c1ccc(F)cc1 (stereo not given) + Cc1ccccc1N=Nc1ccc(NC(=O)c2ccnn2C)c(C)c1 | > 0.1 | > 0.1 | > 0.1 | > 0.1 | 0.0701 | 95.2 | 90.1 | – | – | – | – | 90.9 | 84.5 | – | 84.9 | 59.6 | 70.5 | 54.6 | 58.2 | 41.7 | viability, T/C (second compound 0.1 µM, first compound 0.000316 µM): 112%; viability, T/C (second compound 0.1 µM, first compound 0.001 µM): 105%; viability, T/C (second compound 0.1 µM, first compound 0.00316 µM): 80.9%; viability, T/C (second compound 0.1 µM, first compound 0.01 µM): 86.1%; viability, T/C (second compound 0.316 µM, first compound 0.000316 µM): 89.9%; viability, T/C (second compound 0.316 µM, first compound 0.001 µM): 103%; viability, T/C (second compound 0.316 µM, first compound 0.00316 µM): 93.6%; viability, T/C (second compound 0.316 µM, first compound 0.01 µM): 101%; viability, T/C (second compound 1 µM, first compound 0.000316 µM): 101%; viability, T/C (second compound 1 µM, first compound 0.001 µM): 94.2%; viability, T/C (second compound 1 µM, first compound 0.00316 µM): 80.2%; viability, T/C (second compound 1 µM, first compound 0.01 µM): 88.8%; viability, T/C (second compound 3.16 µM, first compound 0.000316 µM): 75.6%; viability, T/C (second compound 3.16 µM, first compound 0.001 µM): 72.5%; viability, T/C (second compound 3.16 µM, first compound 0.00316 µM): 83.7%; viability, T/C (second compound 3.16 µM, first compound 0.01 µM): 79%; viability, T/C (second compound 10 µM, first compound 0.000316 µM): 56.3%; viability, T/C (second compound 10 µM, first compound 0.001 µM): 56.5%; viability, T/C (second compound 10 µM, first compound 0.00316 µM): 47.7%; viability, T/C (second compound 10 µM, first compound 0.01 µM): 59.9% |
